In data set [1] the target is Free fatty acid receptor 1 (Homo sapiens) (UniProt O14842). In words: Agonist activity at human GPR40 expressed in HEK293 cells assessed as effect on calcium flux. Format: functional, cell-based. (In general: Calcium assays in cells follow changes in intracellular calcium, usually with a dye or a luminescent sensor.)
The target is the same in data set [2]. In words: Agonist activity at human GPR40 expressed in HEK293 cells assessed as calcium flux response relative to linoleic acid. The format is functional, cell-based. Also noted: concentration or dose not given beside the values.
Data set [3] addresses Free fatty acid receptor 1 (Mus musculus) (UniProt Q76JU9). Put plainly: Agonist activity at GPR40 in mouse MIN6 cells assessed as stimulation of 25 mM glucose-mediated insulin secretion at 30 uM. Format: functional, cell-based.
Data set [4] concerns the target Free fatty acid receptor 1 (Mus musculus, UniProt Q76JU9). Put plainly: Agonist activity at GPR40 in mouse MIN6 cells assessed as stimulation of 25 mM glucose-mediated insulin secretion. The format is functional, cell-based.
In data set [5] the target is Free fatty acid receptor 1 (Mus musculus) (UniProt Q76JU9). In words: Agonist activity at GPR40 in mouse MIN6 cells assessed as stimulation of 5 mM glucose-mediated insulin secretion at 30 uM. Format: functional, cell-based.
Chain of Free fatty acid receptor 1 (Mus musculus) (Q76JU9 whole entry): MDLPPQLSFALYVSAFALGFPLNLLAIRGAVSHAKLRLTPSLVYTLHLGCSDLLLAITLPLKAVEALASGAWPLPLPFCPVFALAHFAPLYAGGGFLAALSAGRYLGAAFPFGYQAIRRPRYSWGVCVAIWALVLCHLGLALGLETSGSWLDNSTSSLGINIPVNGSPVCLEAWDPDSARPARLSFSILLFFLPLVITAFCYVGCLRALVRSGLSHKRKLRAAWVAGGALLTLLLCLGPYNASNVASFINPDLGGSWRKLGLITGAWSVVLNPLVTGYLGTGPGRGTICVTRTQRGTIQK
Data set [6] is described as follows: AUC in rat at 10 mg/kg, po. Format: ADME, organism-based. On the set-up: dose 10 mg/kg, route oral. To be noted: plasma.
Data set [7] is described as follows: AUC in rat at 2 mg/kg, iv. Also noted: dose 2 mg/kg, route intravenous. The following applies: plasma. The format is ADME, organism-based.
For a further data set, the target named is Cytochrome P450 2C19 (Homo sapiens, UniProt P33261). In words: Inhibition of human CYP2C19. The format is ADME.
Chain of Cytochrome P450 2C19 (P33261 whole entry): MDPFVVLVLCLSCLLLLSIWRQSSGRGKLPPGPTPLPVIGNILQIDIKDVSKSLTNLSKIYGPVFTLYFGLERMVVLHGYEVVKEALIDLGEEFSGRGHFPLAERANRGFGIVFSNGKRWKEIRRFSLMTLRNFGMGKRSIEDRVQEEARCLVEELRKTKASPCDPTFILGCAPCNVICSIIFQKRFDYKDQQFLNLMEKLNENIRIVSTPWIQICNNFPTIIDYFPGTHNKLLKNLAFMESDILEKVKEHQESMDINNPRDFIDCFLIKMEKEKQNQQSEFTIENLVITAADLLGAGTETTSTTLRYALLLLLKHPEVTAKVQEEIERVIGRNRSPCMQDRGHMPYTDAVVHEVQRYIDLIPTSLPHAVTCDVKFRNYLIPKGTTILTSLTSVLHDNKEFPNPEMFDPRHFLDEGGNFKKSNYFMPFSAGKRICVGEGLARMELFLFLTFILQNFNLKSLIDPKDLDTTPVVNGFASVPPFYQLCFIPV
A further data set has as its target T1, Cytochrome P450 1A2 (Homo sapiens, UniProt P05177).
T1 sequence (P05177 whole entry): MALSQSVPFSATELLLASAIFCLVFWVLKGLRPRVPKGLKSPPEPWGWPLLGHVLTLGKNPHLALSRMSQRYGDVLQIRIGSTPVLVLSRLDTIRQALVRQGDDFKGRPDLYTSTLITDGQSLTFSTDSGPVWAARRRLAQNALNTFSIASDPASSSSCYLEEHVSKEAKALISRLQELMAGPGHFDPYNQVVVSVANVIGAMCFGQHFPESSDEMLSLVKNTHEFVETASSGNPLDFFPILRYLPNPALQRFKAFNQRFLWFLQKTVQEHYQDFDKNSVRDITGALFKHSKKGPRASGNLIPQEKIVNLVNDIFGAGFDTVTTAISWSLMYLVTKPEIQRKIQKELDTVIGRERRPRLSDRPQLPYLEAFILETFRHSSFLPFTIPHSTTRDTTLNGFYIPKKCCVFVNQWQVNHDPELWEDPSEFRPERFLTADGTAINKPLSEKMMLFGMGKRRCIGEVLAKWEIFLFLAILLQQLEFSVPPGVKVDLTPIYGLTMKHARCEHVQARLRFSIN
In words: Inhibition of human CYP1A2. Format: ADME.

The nature of data set [8]: Oral bioavailability in rat at 10 mg/kg, po. Format: ADME, organism-based. The following applies: in vivo.
Data set [9] in a line: Clearance in rat at 2 mg/kg, iv. On the set-up: dose 2 mg/kg, route intravenous. Format: ADME, organism-based. To be noted: in vivo.
The nature of data set [10]: Tmax in rat at 2 mg/kg, iv. The format is ADME, organism-based. To be noted: in vivo. On the set-up: dose 2 mg/kg, route intravenous.
For the next data set, the target named is Cytochrome P450 2C9 (Homo sapiens, UniProt P11712). Put plainly: Inhibition of human CYP2C9. Format: ADME.
Chain of Cytochrome P450 2C9 (P11712 whole entry): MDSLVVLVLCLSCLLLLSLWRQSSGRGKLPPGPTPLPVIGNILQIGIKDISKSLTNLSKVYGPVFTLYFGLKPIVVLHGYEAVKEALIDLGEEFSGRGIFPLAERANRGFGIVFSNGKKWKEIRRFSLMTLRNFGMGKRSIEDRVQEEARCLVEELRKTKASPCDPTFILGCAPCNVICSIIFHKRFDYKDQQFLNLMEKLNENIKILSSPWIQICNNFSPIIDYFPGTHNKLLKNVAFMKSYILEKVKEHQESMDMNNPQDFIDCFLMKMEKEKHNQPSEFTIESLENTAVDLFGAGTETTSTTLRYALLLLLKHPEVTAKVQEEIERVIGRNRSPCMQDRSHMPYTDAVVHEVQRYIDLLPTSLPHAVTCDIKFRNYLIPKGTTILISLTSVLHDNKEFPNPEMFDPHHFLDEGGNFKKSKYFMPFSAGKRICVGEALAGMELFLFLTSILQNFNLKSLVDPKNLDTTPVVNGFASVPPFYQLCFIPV
In a further data set the target is Cytochrome P450 2D6 (Homo sapiens, UniProt P10635). In words: Inhibition of human CYP2D6. The format is ADME.
Chain of Cytochrome P450 2D6 (P10635 whole entry): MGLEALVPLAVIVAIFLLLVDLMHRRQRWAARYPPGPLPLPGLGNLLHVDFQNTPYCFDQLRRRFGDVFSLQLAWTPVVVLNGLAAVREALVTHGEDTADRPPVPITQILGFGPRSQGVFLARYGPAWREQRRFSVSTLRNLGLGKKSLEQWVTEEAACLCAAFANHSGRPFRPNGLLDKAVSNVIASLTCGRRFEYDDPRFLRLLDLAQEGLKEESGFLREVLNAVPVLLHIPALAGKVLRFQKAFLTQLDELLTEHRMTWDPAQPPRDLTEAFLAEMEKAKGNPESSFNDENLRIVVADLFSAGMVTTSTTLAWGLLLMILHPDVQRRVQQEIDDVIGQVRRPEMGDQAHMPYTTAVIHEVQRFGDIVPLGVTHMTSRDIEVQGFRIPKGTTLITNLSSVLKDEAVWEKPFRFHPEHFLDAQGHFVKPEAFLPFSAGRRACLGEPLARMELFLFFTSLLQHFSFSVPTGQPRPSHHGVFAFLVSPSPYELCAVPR
Data set [11] is described as follows: Cmax in rat at 10 mg/kg, po. Format: ADME, organism-based. Also noted: dose 10 mg/kg, route oral. The following applies: in vivo.
The next data set concerns the target Cytochrome P450 3A4 (Homo sapiens, UniProt P08684). Put plainly: Inhibition of human CYP3A4. The format is ADME.
Data set [12] is described as follows: Tmax in rat at 10 mg/kg, po. Format: ADME, organism-based. Also noted: dose 10 mg/kg, route oral. To be noted: in vivo.
Data set [13] in a line: Cmax in rat at 2 mg/kg, iv. Format: ADME, organism-based. On the set-up: dose 2 mg/kg, route intravenous. The following applies: in vivo.
Data set [14] in a line: Half life in rat at 2 mg/kg, iv. Format: ADME, organism-based. On the set-up: dose 2 mg/kg, route intravenous. The following applies: in vivo.
A short description of data set [15]: Half life in rat at 10 mg/kg, po. Format: ADME, organism-based. On the set-up: dose 10 mg/kg, route oral. The following applies: in vivo.

Some results are limits rather than exact numbers.

As a reminder, the EC50 is the concentration giving half of the maximal effect. For orientation: AUC means the area under the concentration-time curve, a measure of exposure. A word on the IC50: it is the concentration needed to halve the response being measured. As a reminder, the bioavailability is the share of a dose that reaches the circulation, judged against a reference dose that is usually intravenous. A word on the clearance: it is the volume of plasma or blood freed of the substance per unit of time. The Tmax is the time at which the peak concentration occurs. Usually Cmax stands for the peak of the concentration-time curve. As usually defined, the half-life is the time needed for the level to fall by half in the phase considered.

Chain of Free fatty acid receptor 1 (Homo sapiens) (O14842 whole entry): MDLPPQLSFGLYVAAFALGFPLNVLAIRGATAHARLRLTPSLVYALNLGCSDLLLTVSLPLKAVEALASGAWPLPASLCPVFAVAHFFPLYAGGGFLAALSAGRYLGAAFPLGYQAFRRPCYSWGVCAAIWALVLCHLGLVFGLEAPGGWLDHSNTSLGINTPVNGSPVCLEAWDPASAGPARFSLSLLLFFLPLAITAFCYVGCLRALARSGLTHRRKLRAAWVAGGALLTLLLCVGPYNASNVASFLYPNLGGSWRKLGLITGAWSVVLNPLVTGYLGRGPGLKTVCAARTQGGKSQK
Chain of Cytochrome P450 3A4 (P08684 whole entry): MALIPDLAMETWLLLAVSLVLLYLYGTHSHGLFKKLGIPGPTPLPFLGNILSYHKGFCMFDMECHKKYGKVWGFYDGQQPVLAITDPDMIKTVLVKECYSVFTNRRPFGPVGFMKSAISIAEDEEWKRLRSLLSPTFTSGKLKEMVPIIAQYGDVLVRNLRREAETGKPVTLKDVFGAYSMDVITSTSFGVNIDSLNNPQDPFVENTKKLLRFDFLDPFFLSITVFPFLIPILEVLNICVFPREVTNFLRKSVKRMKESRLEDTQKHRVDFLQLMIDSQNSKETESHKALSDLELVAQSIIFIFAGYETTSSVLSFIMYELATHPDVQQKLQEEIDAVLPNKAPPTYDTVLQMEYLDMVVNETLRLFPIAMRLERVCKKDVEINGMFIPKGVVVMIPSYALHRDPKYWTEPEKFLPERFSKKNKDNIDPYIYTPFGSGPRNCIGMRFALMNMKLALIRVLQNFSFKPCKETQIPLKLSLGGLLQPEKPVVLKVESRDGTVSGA
Chain of Free fatty acid receptor 1 (Q76JU9 whole entry): as the sequence (Q76JU9 whole entry) above

As to `COCCCOc1ccc(C(CC(=O)O)c2ccccc2)cc1` (stereo not drawn), the ED50 in [1] worked out at 7580 nM. For the same molecule, the Activity in data set [2] came to 43%.
As to `CCCCCCCOc1ccc(C(CC(=O)O)c2ccccc2)cc1` (stereo not drawn), the ED50 in data set [1] stood at 4260 nM. Besides, the Activity in data set [2] stood at 70%.
For the molecule `CCC(CC)COc1ccc(C(CC(=O)O)c2ccccc2)cc1` (stereo not drawn), the Activity in data set [3] is 155%; in data set [2], 96%. The ED50 in [1] worked out at 640 nM. Moreover, the EC50 in [4] was determined as 2200 nM.
With `CC[C@@H](C)COc1ccc(C(CC(=O)O)c2ccccc2)cc1` (stereo in doubt; 22(B,R)), the ED50 in [1] turned out to be 710 nM. The Activity in [2] is 98%.
Turning to `CCCCOc1ccc(C(CC(=O)O)c2cccc(C(F)(F)F)c2)cc1` (stereo not drawn), the ED50 in data set [1] came to 2840 nM. The Activity in data set [2] was 75%.
The corresponding values for `CCCCOc1ccc(C(CC(=O)O)c2ccc(C(F)(F)F)cc2)cc1` (stereo not drawn) are above 10000 nM and 3%.
Take `CCCCOc1ccc(C(CC(=O)O)c2cccs2)cc1` (stereo not drawn): the figures for the Activity in [3] and in data set [2] were 171% and 79%, respectively. Also, the ED50 in data set [1] worked out at 1290 nM.
Take `CCCCOc1ccc(C(CC(=O)O)c2ccccc2)cc1` (stereo not drawn): the ED50 in data set [1] was determined as 1200 nM. For the same molecule, the Activity in data set [2] was determined as 72%.
The corresponding values for `CC(C)CCOc1ccc(C(CC(=O)O)c2ccccc2)cc1` (stereo not drawn) are 1860 nM and 77%.
The corresponding values for `CC[C@@H](C)COc1ccc(C(CC(=O)O)c2ccccc2)cc1` (stereo in doubt; 22(A,R)) are above 10000 nM and 3%.
Consider `CCCCCCOc1ccc(C(CC(=O)O)c2ccccc2)cc1` (stereo not drawn), for which the Activity in data set [3] worked out at 137%; in data set [2], 68%. In data set [1], the ED50 turned out to be 2880 nM.
`CCCCOc1ccc(C(CC(=O)O)c2cccc(F)c2)cc1` (stereo not drawn): in data set [1], the ED50 came to 1440 nM. The Activity in data set [2] came out at 81%.
For the molecule `C/C=C/COc1ccc(C(CC(=O)O)c2ccccc2)cc1` (stereo not drawn), the ED50 in data set [1] was 2710 nM. For the same molecule, the Activity in data set [2] stood at 75%.
The corresponding values for `C=C(C)CCOc1ccc(C(CC(=O)O)c2ccccc2)cc1` (stereo not drawn) are 2710 nM and 81%.
Take `CCCCCOc1ccc(C(CC(=O)O)c2ccccc2)cc1` (stereo not drawn): the Activity in data set [3] is 122%; in data set [2], 60%. For the same molecule, the ED50 in [1] came to 2970 nM.
Consider `CCCCC/C=C\C/C=C\CCCCCCCC(=O)O`, for which the Activity in [3] came to 172%; in data set [5], 141%.
For `CCCCOc1ccc(C(CC(=O)O)c2ccccc2O)cc1` (stereo not drawn), the ED50 in [1] is 4800 nM. Also, the Activity in [2] worked out at 66%.
With `CCCCOc1ccc(C(CCCC(=O)O)c2ccccc2)cc1` (stereo not drawn), the ED50 in data set [1] was above 10000 nM. Besides, the Activity in [2] was found to be 3%.
The corresponding values for `CC[C@H](C)COc1ccc(C(CC(=O)O)c2ccccc2)cc1` (stereo in doubt; 22(A,S)) are above 10000 nM and 2%.
Take `CCC(C)COc1ccc(C(CC(=O)O)c2ccccc2)cc1` (stereo not drawn): the figures for the AUC in data set [6] and in data set [7] were 10700 ng·h/mL and 2480 ng·h/mL, respectively. Besides, the IC50 on Cytochrome P450 2C19, at Cytochrome P450 1A2, at Cytochrome P450 2C9, against Cytochrome P450 2D6 and against Cytochrome P450 3A4 was above 22000 nM in each case. For the same molecule, in data set [1], the ED50 is 300 nM. In data set [8], this molecule had a bioavailability of 87%. The molecule further yielded a clearance in data set [9] of 13.8 mL/min/kg. The Tmax amounted to 4.8 min in data set [10] and 0.5 h in data set [12]. Further, the Cmax in [11] amounted to 4760 ng/mL; in data set [13], 5780 ng/mL. Moreover, the figures for the half-life in [14] and in [15] were 4.78 h and 6.33 h, respectively. In data set [2], the Activity worked out at 98%.
For the molecule `CCCOc1ccc(C(CC(=O)O)c2ccccc2)cc1` (stereo not drawn), the ED50 in data set [1] is 4800 nM. For the same molecule, the Activity in data set [2] amounted to 68%.
With `CCCCCOc1cccc(C(CC(=O)O)c2ccccc2)c1` (stereo not drawn), the ED50 in [1] was above 10000 nM. In [2], the Activity amounted to 6%.
The corresponding values for `CC[C@H](C)COc1ccc(C(CC(=O)O)c2ccccc2)cc1` (stereo in doubt; 22(B,S)) are 560 nM and 94%.
`O=C(O)CC(c1ccccc1)c1ccc(OCCCC(F)(F)F)cc1` (stereo not drawn): in data set [1], the ED50 came to 3160 nM. Also, the Activity in data set [2] was found to be 72%.

The values above are taken from ChEMBL document CHEMBL1143689, “Synthesis and biological evaluation of 3-aryl-3-(4-phenoxy)-propionic acid as a novel series of G protein-coupled receptor 40 agonists” (J Med Chem, 2007).
